We go through 21 compounds from paper PMC11950244, “Discovery of novel dual-target inhibitors of LSD1/EGFR for non-small cell lung cancer therapy” (Acta Pharmacologica Sinica, 2025).

pIC50, pKd: −log10 of the molar value. Where two headings read alike, the source gives them in different places.

The subject of test [1] is BaF3 cells harboring EGFR L858R/T790M/C797S mutant. On the set-up: method as in PMID 30429956. As to conditions: read-out: IC50 BaF3 cells harboring EGFR L858R/T790M/C797S, previous studies; cited from earlier work.
Test [2] has as its system BaF3 cells stably expressing EGFR (L858R/T790M/C797S). Kind of test: BaF3 cell assay (CTG luminescence). The settings on record: Mus musculus, BaF3, read-out: BaF3 cell assay IC50 (μM) L858R/T790M/C797S.
Procedure: The following steps were followed for cell culture and compound treatment:
% Inhibition is calculated as follow: %Inhibition=1−LUMcmpd−LUMave−pc/LUMave−vc−LUMave−pc×100
LUMcmpd = LUM for compound being tested
LUMave_pc = Average LUM for positive controls (10 μM Control Compound)
LUMave_vc = Average LUM for vehicle controls (0.1% DMSO)
The target in test [3] is T1, LSD1 (Homo sapiens, UniProt O60341). Kind of test: LSD1 enzymatic assay.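 As to Bottom: percent inhibition of LSD1 activity from the fitted dose-response curve.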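 As to Top: percent inhibition of LSD1 activity from the fitted dose-response curve.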 The class given is biochemical. The settings on record: for Bottom / Top / Hillslope: concentration-response curve fit parameter; for IC50: read-out: IC50 (μM) against LSD1. How it is done:
A total of 12 compounds were purchased from J&K Scientific Ltd. (Shanghai, China). The biological experiments of inhibiting the enzymatic activity of LSD1 by 12 test compounds were conducted by Pharmaron (Beijing, China). Each compound was serially diluted 4-fold in 100% dimethyl sulfoxide (DMSO) from a starting DMSO stock concentration of 20 mM to obtain 10 concentration doses. Seclidemstat was used as a positive control. The diluted compounds were added to the LSD1 assay buffer (50 mM Tris-HCl, pH 7.5, and 1% DMSO) and incubated with LSD1 for 30 min at room temperature. The peptide substrate was then added to initiate the reaction, and the mixture was further incubated for 60 min at room temperature. The reaction was stopped by adding the stop solution, followed by the addition of the detection solution containing protein-A-Eu, streptavidin-d2, and anti-Histone H3 (dimethyl K9) antibody. […] The IC50 was calculated using a nonlinear regression (dose response – variable slope) by fitting the inhibition ratio and log of compound concentrations using Graphpad 8.0.

In test [4] the target is double-mutant EGFR (T790M/L858R) (Homo sapiens, UniProt P00533, L858R/T790M). Kind of test: EGFR kinase assay (HTRF), double mutant. The class given is biochemical. How it is done:
(§1) The biological experiments of inhibiting the activity of EGFR by test compounds were also performed by Pharmaron (Beijing). To conduct the kinase assay, the following steps were followed:
(§2) % Inhibition is calculated as follow: %Inhibition=1−SINGALcmpd−SINGALave−pc/SINGALave−vc−SINGALave−pc×100
(§3) SINGALcmpd = singal for compound being tested
(§4) SINGALave_pc = singal for positive controls
(§5) SINGALave_vc = singal for vehicle controls

Test [5] concerns the target triple-mutant EGFR (L858R/T790M/C797S) (Homo sapiens, UniProt P00533, C797S/L858R/T790M). Kind of test: EGFR kinase assay (HTRF), triple mutant. The settings on record: for IC50: read-out: EGFR kinase assay IC50 (μM) L858R/T790M/C797S. The class given is biochemical. How it is done:
as §1, §2, §3, §4, §5

Test [6] addresses T1, LSD1. Kind of test: SPR binding assay (Biacore T200). As for the experimental part: Surface plasmon resonance (SPR) was employed to evaluate direct binding between compounds and LSD1 using Biacore T200 optical biosensor (Biacore Life Sciences, GE Healthcare). LSD1 was covalently attached to CM5 sensor chip via amine coupling. Binding experiments were conducted at 15 °C in a buffer containing 10 mM HEPES (pH 7.4), 150 mM NaCl, 1% DMSO, and 0.05% Tween, with a flow rate of 30 μL/min. Compounds were serially diluted in the same buffer and injected over the prepared surfaces for 15–25 s at increasing concentrations. Sensorgrams were corrected by subtracting signals from both an untreated reference channel and blank injections. Data analysis was performed using Biacore T200 evaluation software (GE Healthcare).

Broadly, the pKd is the Kd on a negative log10 scale, so that one unit is a factor of ten.

Sequence of double-mutant EGFR (T790M/L858R) (P00533 25-1210 T790M/L858R): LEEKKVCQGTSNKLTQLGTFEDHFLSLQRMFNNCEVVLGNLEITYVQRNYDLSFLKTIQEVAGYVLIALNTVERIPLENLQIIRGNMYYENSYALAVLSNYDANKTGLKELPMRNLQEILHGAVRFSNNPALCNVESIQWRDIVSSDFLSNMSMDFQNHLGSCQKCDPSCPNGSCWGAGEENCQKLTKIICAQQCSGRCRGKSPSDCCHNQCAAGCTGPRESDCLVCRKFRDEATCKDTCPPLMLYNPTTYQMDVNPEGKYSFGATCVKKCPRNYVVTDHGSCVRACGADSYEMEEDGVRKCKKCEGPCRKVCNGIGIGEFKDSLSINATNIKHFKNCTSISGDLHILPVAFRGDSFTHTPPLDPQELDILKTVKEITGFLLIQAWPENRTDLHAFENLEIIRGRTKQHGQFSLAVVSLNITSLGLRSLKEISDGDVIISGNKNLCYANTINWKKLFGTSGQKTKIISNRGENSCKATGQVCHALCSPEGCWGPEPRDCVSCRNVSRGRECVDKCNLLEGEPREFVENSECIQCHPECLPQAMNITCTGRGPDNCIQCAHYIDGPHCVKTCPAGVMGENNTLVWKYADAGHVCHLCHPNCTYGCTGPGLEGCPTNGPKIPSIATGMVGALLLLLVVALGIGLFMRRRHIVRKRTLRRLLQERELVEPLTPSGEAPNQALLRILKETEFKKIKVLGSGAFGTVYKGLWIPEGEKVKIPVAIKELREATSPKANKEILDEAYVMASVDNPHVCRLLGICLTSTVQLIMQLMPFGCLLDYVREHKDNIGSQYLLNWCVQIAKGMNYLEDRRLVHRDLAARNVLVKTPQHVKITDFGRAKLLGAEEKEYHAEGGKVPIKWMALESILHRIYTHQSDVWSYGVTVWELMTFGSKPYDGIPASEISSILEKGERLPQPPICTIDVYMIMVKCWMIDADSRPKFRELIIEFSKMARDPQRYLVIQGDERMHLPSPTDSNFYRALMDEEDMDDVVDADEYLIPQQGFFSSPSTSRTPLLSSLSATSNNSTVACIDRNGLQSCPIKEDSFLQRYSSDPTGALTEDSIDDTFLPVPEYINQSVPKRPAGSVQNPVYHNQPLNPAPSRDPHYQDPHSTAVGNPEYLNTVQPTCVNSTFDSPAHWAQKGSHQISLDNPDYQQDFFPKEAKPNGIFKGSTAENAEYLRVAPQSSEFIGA
Sequence of triple-mutant EGFR (L858R/T790M/C797S) (P00533 25-1210 T790M/C797S/L858R): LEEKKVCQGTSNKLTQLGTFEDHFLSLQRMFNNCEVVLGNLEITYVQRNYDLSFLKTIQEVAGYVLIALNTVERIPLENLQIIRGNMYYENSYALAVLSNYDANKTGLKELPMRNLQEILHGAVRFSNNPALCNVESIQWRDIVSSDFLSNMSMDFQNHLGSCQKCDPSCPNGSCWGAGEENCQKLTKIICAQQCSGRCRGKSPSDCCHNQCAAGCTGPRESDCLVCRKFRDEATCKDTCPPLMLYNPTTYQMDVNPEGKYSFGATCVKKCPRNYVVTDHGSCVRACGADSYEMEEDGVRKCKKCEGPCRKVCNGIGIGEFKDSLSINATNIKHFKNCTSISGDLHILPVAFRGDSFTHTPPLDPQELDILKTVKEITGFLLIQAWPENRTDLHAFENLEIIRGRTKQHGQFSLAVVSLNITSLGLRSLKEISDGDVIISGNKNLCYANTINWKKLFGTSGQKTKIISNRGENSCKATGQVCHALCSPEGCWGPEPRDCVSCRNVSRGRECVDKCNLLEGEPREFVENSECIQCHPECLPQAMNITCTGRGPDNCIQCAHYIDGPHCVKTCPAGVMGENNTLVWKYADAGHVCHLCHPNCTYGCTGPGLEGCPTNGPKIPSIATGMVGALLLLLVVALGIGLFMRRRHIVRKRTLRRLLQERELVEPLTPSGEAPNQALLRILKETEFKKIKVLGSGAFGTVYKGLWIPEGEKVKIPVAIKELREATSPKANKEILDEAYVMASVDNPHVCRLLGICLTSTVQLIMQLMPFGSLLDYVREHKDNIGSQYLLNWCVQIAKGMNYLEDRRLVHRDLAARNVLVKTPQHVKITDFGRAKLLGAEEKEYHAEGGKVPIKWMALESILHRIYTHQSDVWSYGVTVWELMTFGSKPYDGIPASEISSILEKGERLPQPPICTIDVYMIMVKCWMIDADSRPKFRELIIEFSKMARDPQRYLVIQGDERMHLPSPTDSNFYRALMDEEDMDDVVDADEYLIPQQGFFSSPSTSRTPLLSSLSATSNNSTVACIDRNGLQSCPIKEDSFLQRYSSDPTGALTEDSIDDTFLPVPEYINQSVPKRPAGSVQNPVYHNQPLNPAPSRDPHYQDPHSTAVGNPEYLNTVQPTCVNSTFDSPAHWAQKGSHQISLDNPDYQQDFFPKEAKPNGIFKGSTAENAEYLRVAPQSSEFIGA

`COc1cc(N2CCC(N3CCN(C)CC3)CC2)ccc1Nc1ncc(Cl)c(Nc2ccccc2P(C)(C)=O)n1` [Brigatinib, reference compound]: the pIC50 in test [1] is 6.38. For the same compound, the IC50 in test [2] was found to be 0.4 µM.
`CCN(CC)c1ccc(/C=C2/C(=O)NC(=O)N(c3ccc(Cl)cc3)C2=O)cc1` [D-1]: at LSD1 [3], the pIC50 is below 4.00.
`CCN(CC)c1ccc(/C=C2/C(=O)NC(=O)N(c3ccc(Cl)cc3)C2=O)c(OC)c1` [D-2] gave a pIC50 against LSD1 [3] below 4.00.
At LSD1 [3], `CCN(CC)c1ccc(/C=C2/C(=O)NC(=O)N(c3ccc(C(F)(F)F)cc3)C2=O)c(O)c1` [D-3] showed a pIC50 of 4.45, a Relative potency % of 0.4%, a Bottom of 8.10 and a Top of 45.78.
Consider `Cc1ccc(-c2noc(-c3cccn(CC(=O)Nc4ccccc4Br)c3=O)n2)cc1` [D-4], for which, on LSD1 [3], the Relative potency % worked out at 0.5%, the Bottom turned out to be 5.79, the Hillslope was determined as 4.05 and the Top amounted to 60.26. In addition, the IC50 on LSD1 [3] was determined as 29.2 µM.
For the compound `COc1ccccc1NC(=O)Cn1cc(-c2nc(-c3ccc(C)cc3)no2)ccc1=O` [D-5], on LSD1 [3], the Relative potency % stood at 0.7%, the Bottom is given as 7.19, the Hillslope is given as 2.04 and the Top is given as 54.06. At LSD1 [3], the IC50 worked out at 21.5 µM.
For `CCOc1ccccc1NC(=O)Cn1cc(-c2nc(-c3ccc(C)cc3)no2)ccc1=O` [D-6], at LSD1 [3], the IC50 was above 100 µM.
As for `COC(=O)c1ccccc1NC(=O)Cn1cc(-c2nc(-c3ccc(C)cc3)no2)ccc1=O` [D-7], the IC50 at LSD1 [3] is above 100 µM.
Turning to `Cc1ccc(-c2noc(-c3ccc(=O)n(CC(=O)Nc4cccc(Br)c4)c3)n2)cc1` [D-8], on LSD1 [3], the IC50 was above 100 µM.
Consider `Cc1ccc(-c2noc(-c3ccc(=O)n(CC(=O)Nc4ccc(Br)cc4)c3)n2)cc1` [D-9], for which, at LSD1 [3], the Relative potency % amounted to 0.5%, the Bottom is 3.84, the Top turned out to be 52.57 and the IC50 stood at 26.6 µM.
In the case of `Cc1ccc(-c2noc(-c3ccc(=O)n(CC(=O)Nc4ccccc4C(F)(F)F)c3)n2)cc1` [D-10], on LSD1 [3], the Relative potency % was 0.4%, the Bottom is 2.43, the Top is listed as 42.68 and the IC50 was 34.3 µM.
`Cc1ccc(-c2noc(-c3ccc(=O)n(CC(=O)Nc4ccc(C)cc4Br)c3)n2)cc1` [D-11]: the IC50 on LSD1 [3] is above 100 µM.
Turning to `COc1cc(Cl)c(C)cc1NC(=O)Cn1cc(-c2nc(-c3ccc(C)cc3)no2)ccc1=O` [D-12], the IC50 on LSD1 [3] was above 100 µM.
Same read-out and setting: for `CCCCNC(=O)Cn1cc(-c2nc(-c3ccc(C)cc3)no2)ccc1=O` [D-13] the value was above 100 µM.
With `Cc1ccc(-c2noc(-c3ccc(=O)n(CC(=O)NCc4ccccc4)c3)n2)cc1` [D-14], at LSD1 [3], the Relative potency % was 0.5%, the Bottom is −1.64, the Hillslope was determined as 2.53 and the Top is given as 48.09. In addition, the IC50 at LSD1 [3] amounted to 28.3 µM. Moreover, the IC50 in test [4] was 73.9 µM. Also, the IC50 in test [5] was 86.7 µM. For the same compound, the IC50 in test [2] was determined as 2.45 µM.
For the compound `COC(=O)c1sccc1NC(=O)Cn1cc(-c2nc(-c3ccc(C)cc3)no2)ccc1=O` [D-15], the IC50 at LSD1 [3] was above 100 µM.
Consider `Cc1noc(-c2ccc(=O)n(CC(=O)Nc3ccccc3Br)c2)n1` [D-16], for which, at LSD1 [3], the Relative potency % was 0.5%, the Bottom is on record as −2.33, the Top was found to be 51.97 and the IC50 amounted to 28.7 µM. For the same compound, the IC50 in test [5] stood at 59.6 µM. The IC50 in test [2] was found to be 2.72 µM.
`CCCc1noc(-c2ccc(=O)n(CC(=O)Nc3ccccc3Br)c2)n1` [D-17]: on LSD1 [3], the Relative potency % came out at 0.8%, the Bottom was −0.07, the Top was found to be 64.23 and the IC50 amounted to 19.8 µM. The compound also had an IC50 in test [4] above 100 µM. For the same compound, in test [5], the IC50 is above 100 µM.
Take `CC(C)c1noc(-c2ccc(=O)n(CC(=O)Nc3ccccc3Br)c2)n1` [D-18]: at LSD1 [3], the IC50 was above 100 µM.
Take `Cc1ccc(-c2noc(-c3ccc(=O)n(CC(=O)Nc4ccccc4Br)c3)n2)cc1` [L-6]: at LSD1 [3], the Relative potency % is reported as 2.5%, the Bottom is on record as −11.46, the Hillslope turned out to be 1.86 and the Top is 55.47. The IC50 on LSD1 [3] turned out to be 9.26 µM. For the same compound, the IC50 in test [4] stood at 26.5 µM. In addition, in test [5], the IC50 stood at 28.5 µM. For the same compound, the “Binding to LSD1 by SPR (in words)” value on LSD1 [6] was “specific and reversible binding”. For the same compound, the pKd at LSD1 [6] (SPR, 15 °C, read-out: dissociation constant (KD)) was 4.58. Further, the IC50 in test [2] was found to be 8.99 µM.
As for `C/C(=N\NC(=O)c1cccc(S(=O)(=O)N2CCN(C)CC2)c1)c1cc(Cl)ccc1O` [Seclidemstat, seclidemstat, reference compound], the pIC50 at LSD1 [3] is 6.64. Besides, the “Inhibition of LSD1 enzymatic activity” value on LSD1 [3] (at 10 μM) is on record as “complete inhibition”. The “Inhibitory activity against EGFR double mutant (in words)” value in test [4] is reported as “does not exhibit inhibitory activity”. Besides, the “Inhibitory activity against EGFR triple mutant (in words)” value in test [5] is given as “does not exhibit inhibitory activity”. In addition, in test [2], the IC50 turned out to be 0.98 µM.
